Values quoted from earlier work as cited in patent CN104546722A, “米铂脂质体和制法” (priority 2015, dated 2015).
Like-named read-outs stand apart in the source and are kept apart here.

Assays:
[1] = test system: liver cancer patients (肝癌患者)
[2] = test system: hepatocellular carcinoma patients (肝细胞癌患者)
[3] = test system: rodent liver cancer cell line AH109A (鼠肝癌细胞株AH109A)
[4] = test system: human liver cancer cell line Li-7 (人肝癌细胞株Li-7)
[5] = test system: hepatocellular carcinoma patients (肝细胞癌患者); details: human, in vivo
[6] = test system: hepatocellular carcinoma (肝细胞癌)
[7] = not given; remark: listed apart in the source
[8] = test system: hepatocellular carcinoma patients (肝细胞癌患者); details: human, in vivo; remark: listed apart in the source
[9] = after administration

SMILES: CCCCCCCCCCCCCC(=O)[O-].CCCCCCCCCCCCCC(=O)[O-].N[C@@H]1CCCC[C@H]1N.[Pt+2] [米铂, 顺-[(1R,2R)-1,2-环己二胺-N,N’]双十四酰氧基合铂]
- CR rate ([1]; 9/16 patients): 56%
- tolerability ([1]; 16 patients): 耐受性好
- TEV (disappearance of mass or 100% tumour necrosis rate) ([2]; 22/83 patients): 26.5%
- hepatic vascular injury ([2]; from administration): 未发生肝血管损伤
- 2-year survival rate ([2]; human, in vivo): 75.9%
- 3-year survival rate ([2]; human, in vivo): 58.4%

SMILES: CCCCCCCCCCCCCC(=O)[O-].CCCCCCCCCCCCCC(=O)[O-].N[C@@H]1CCCC[C@H]1N.O.[Pt+2] [米铂一水合物, (SP-4-2)-[(1R,2R)-1,2环己二氨-N,N′]二(十四酸-O)合铂一水合物]
- tumour cell proliferation rate ([3]; 20 mg/mL in suspension): 明显降低
- antitumour effect ([3]; single dose of suspension): 剂量相关地抗肿瘤作用
- inhibition of cancer cell proliferation ([3]; suspension): 以剂量相关方式抑制癌细胞增殖
- tumour cell proliferation rate ([4]; 20 mg/mL in suspension): 明显降低
- antitumour effect ([4]; single dose of suspension): 剂量相关地抗肿瘤作用
- inhibition of cancer cell proliferation ([4]; suspension): 以剂量相关方式抑制癌细胞增殖
- 1-year survival rate [5]: 90.1%
- 2-year survival rate [5]: 75.9%
- 3-year survival rate [5]: 58.4%
- efficacy compared with 净司他丁斯酯 [5]: 疗效相当
- safety compared with 净司他丁斯酯 [5]: 更安全
- time to disappearance of adverse reactions ([6]; almost all, after administration): 4~6 weeks
- CR rate (therapeutic effect, TE) ([6]; hepatocellular carcinoma): 60%
- total platinum mass concentration in blood (mean) (after first administration): 9.6 ng/mL
- total platinum mass concentration in blood (mean) (after second administration): 12.9 ng/mL
- Cmax, reduced to ([7]; about 1 year after administration): ~17%
- total platinum concentration in blood (level) ([7]; after administration, (ng)): 极低,属微量且维持时间长
- 1-year survival rate [8]: 63.6%
- 2-year survival rate [8]: 38.2%
- total platinum concentration in blood [9]: 极低,可长时间维持
